Reference: patent US10590463B2, “Diagnostic methods and kits for monitoring response to chemotherapy in ovarian cancer” (RNA Disgnostics Inc., priority 2011, dated 2020)

Tested on: A2780 cells
Experiment: chemotherapy-dependent RNA degradation (RNA integrity number, Agilent 2100 Bioanalyzer) in cultured A2780 cells
Type: cell-based
Conditions: for concentration at which reductions in RNA integrity are induced: range tested 2.5-40 μM; for effect on RNA integrity (in words): up to 40 μM; for change in RNA integrity at low concentrations: low (micromolar) concentrations
Experimental: Before starting RNA isolation, an appropriate volume of buffer RLT is prepared by adding β-mercaptoethanol to buffer RLT in a ratio of 10 μl for every 1 ml of solution. RLT buffer is stable for a month after addition of β-ME. […] This precipitate was redissolved by warming at 30° C. and then placing the solution at room temperature. Aliquots of 0.5 ml RLT buffer (with β-ME) were placed in Eppendorf microfuge tubes prior to RNA isolation procedures. […] The resulting lysate is passed at least 5 times through a 20-gauge needle (0.9 mm diameter) fitted to an RNase-free syringe to shear associated genomic DNA. The sheared lysate is then transferred to a microcentrifuge tube and centrifuged at maximum speed for 3 minutes, with transfer of the supernatant to a new tube. One volume of 70% ethanol (500 μl) is added to the homogenized lysate, and the sample mixed well by pipetting. If some volume of the lysate is lost during homogenization, the volume of ethanol is adjusted accordingly. […] Up to 700 μl of the sample is then applied to an RNeasy mini column placed in a 2 ml collection tube, including any precipitate that may have formed. […] Any remaining lysate is applied to the column and the column centrifuged as described above, discarding the flow-through. Buffer RW1 (700 μl) is then added to the RNeasy column in a 2 ml microfuge tube to wash the column free of unbound lysate components. […] The RNeasy column is placed into a new 2 ml microfuge tube and 500 μl of RPE buffer is added to wash the column. After centrifugation for 30 seconds at ≥8000×g (≥10,000 rpm) to remove the wash buffer, two identical washes of the column in RPE buffer are performed. This buffer is supplied as a concentrate, and must be diluted with 4 volumes of ethanol (100%) prior to use. Any residual liquid associated with the column is then removed by centrifugation at full speed for 1 minute. […] After leaving the column at room temperature for 1 minute, the column is centrifuged for 1 min at full speed to collect the eluted RNA. To obtain a higher concentration and complete elution of the RNA from column, a second elution step was performed by reapplying the eluate to the column and centrifuging a second time.
This document includes a detailed description on setting up the assay equipment, preparing and running the RNA Nanochips, and analysis of the capillary electrophoretic data using the Agilent […] Bioanalyzer and its associated “Expert software”. It is important that all “Essential Measurement Practices” described in the document are followed. RNA 6000 “Nanochips” and associated solutions are obtained in RNA 6000 Nano kits that can be purchased from Agilent Technologies (Mississauga, ON). RNA Nanochips are manufactured by Caliper Life Sciences (Hopkinton, Mass.). The sizes of the rRNAs, and the concentration of RNA in a given sample are determined by extrapolation from a standard curve of reference RNAs provided in the RNA 6000 NANO kits. All data from the Bioanalyzer runs were stored both as PDF and XAD files. The Agilent 2100 Expert software was used to obtain all data from the capillary electrophoresis runs, including the RNA quality and quantity for a given RNA preparation.

[1] = A2780 cells, 40 μM, 24 h, FIG. 1
[2] = 40 μM (each drug), same experiment, FIG. 2
[3] = 40 μM (each drug), same experiment, from 9.40±0.12 units, FIG. 2

SMILES | reduction in RNA integrity [1] | concentration at which reductions in RNA integrity are induced (A2780 cells, 24 h) | effect on RNA integrity (in words) (A2780 cells) | further results
COc1cccc2c1C(=O)c1c(O)c3c(c(O)c1C2=O)C[C@@](O)(C(=O)CO)C[C@@H]3O[C@H]1C[C@H](N)[C@H](O)[C@H](C)O1 [doxorubicin] | up to 20.0% | 2.5 µM | significant reductions | 
CC(=O)O[C@H]1C(=O)[C@@]2(C)[C@H]([C@H](OC(=O)c3ccccc3)[C@]3(O)C[C@H](OC(=O)[C@H](O)[C@@H](NC(=O)c4ccccc4)c4ccccc4)C(C)=C1C3(C)C)[C@]1(OC(C)=O)CO[C@@H]1C[C@@H]2O [paclitaxel] | 75.8% |  | greatest reduction | reduction in RNA integrity (A2780 cells, 20 μM, 24 h, FIG. 1): 52.5%
O=c1[nH]cc(F)c(=O)[nH]1 [5-FI-uracil, 5-fluorouracil] |  | ≥ 20 µM |  | 
COc1cc([C@@H]2c3cc4c(cc3[C@@H](O[C@@H]3O[C@@H]5CO[C@@H](C)O[C@H]5[C@H](O)[C@H]3O)[C@H]3COC(=O)[C@H]23)OCO4)cc(OC)c1O [etoposide] |  |  | unable to affect RNA integrity | effect on RNA integrity at highest concentration (A2780 cells, 40 μM, 24 h): no effect
COc1cccc2c1C(=O)c1c(O)c3c(c(O)c1C2=O)C[C@@](O)(C(=O)CO)C[C@@H]3O[C@H]1C[C@H](N)[C@@H](O)[C@H](C)O1 [epirubicin] |  | 2.5 µM |  | RNA integrity after treatment [2]: 5.87±1.74 units; reduction in RNA integrity [3]: 37.7%; dose-dependent reduction in RNA quality (up to) (A2780 cells, 2.5-40 μM, 24 h, FIG. 1): up to 29.2%
N.N.[Cl][Pt][Cl] [cisplatin] |  |  |  | effect on RNA integrity at highest concentration (A2780 cells, 40 μM, 24 h): substantial and statistically significant reductions; change in RNA integrity at low concentrations (A2780 cells, 24 h): no effect
CC[C@]1(O)C[C@@H]2CN(CCc3c([nH]c4ccccc34)[C@@](C(=O)OC)(c3cc4c(cc3OC)N(C)[C@H]3[C@@](O)(C(=O)OC)[C@H](OC(C)=O)[C@]5(CC)C=CCN6CC[C@]43[C@@H]65)C2)C1 [vinblastine] |  | 2.5 µM |  | reduction of RNA integrity (A2780 cells, lowest concentration tested 2.5 μM): almost two
CC(=O)O[C@@]12CO[C@@H]1C[C@H](O)[C@@]1(C)C(=O)[C@H](O)C3=C(C)[C@@H](OC(=O)[C@H](O)[C@@H](NC(=O)OC(C)(C)C)c4ccccc4)C[C@@](O)([C@@H](OC(=O)c4ccccc4)[C@H]21)C3(C)C [docetaxel] | 18.8% |  | minimal reduction | RNA integrity after treatment [2]: 8.67±0.42 units; reduction in RNA integrity [3]: 7.8%; change in RNA integrity at low concentrations (A2780 cells, 24 h): little change
